# Measured values from ChEMBL document CHEMBL1141966, “Novel triazole based inhibitors of Ras farnesyl transferase” (Bioorg Med Chem Lett, 2005).
# Target: Protein farnesyltransferase (Homo sapiens, UniProt P49354+P49356)
# Test: Inhibitory activity against K-Ras farnesyl transferase
# Type: protein-complex assay
row,Structure (SMILES),IC50 [µM]
1,COc1ccc(CCN(Cc2nncn2Cc2ccc(C#N)cc2)C(=O)c2ccc3ccccc3n2)cc1,0.075
2,N#Cc1ccc(Cn2cnnc2CN(C(=O)c2ccc3ccccc3n2)c2ccc(Oc3ccccc3)cc2)cc1,0.044
3,N#Cc1ccc(Cn2nnnc2CN(Cc2ccc(F)cc2F)C(=O)c2ccc3ccccc3n2)cc1,> 1
4,N#Cc1ccc(Cn2cnnc2CN(Cc2ccc(F)cc2F)C(=O)c2ccc3ccccc3c2)cc1,0.0022
5,N#Cc1ccc(Cn2cnnc2CN(CCc2ccc(F)cc2)C(=O)c2ccc3ccccc3n2)cc1,0.019
6,N#Cc1ccc(Cn2cnnc2CN(Cc2ccc([N+](=O)[O-])cc2)C(=O)c2ccc3ccccc3n2)cc1,0.0016
7,N#Cc1ccc(Cn2cnnc2CN(CCc2ccc(Br)cc2)C(=O)c2cc3ccccc3s2)cc1,0.0893
8,N#Cc1ccc(Cn2cncc2CN(Cc2ccc(F)cc2F)C(=O)c2ccc3ccccc3n2)cc1,0.187
9,N#Cc1ccc(Cn2cnnc2CN(CCc2ccc(Br)cc2)C(=O)c2cc3ccccc3o2)cc1,0.0532
10,N#Cc1ccc(Cn2cnnc2CN(CCc2ccc(Br)cc2)C(=O)c2ccc3ccccc3c2)cc1,0.0283
11,N#Cc1ccc(Cn2cnnc2CN(CCc2ccc(Br)cc2)C(=O)c2ccc3ccccc3n2)cc1,0.026
12,N#Cc1ccc(Cn2cnnc2CN(CCc2ccc(Br)cc2)C(=O)c2ccc3c(c2)OCO3)cc1,0.061
13,N#Cc1ccc(Cn2cnnc2CN(Cc2ccc(F)cc2)C(=O)c2ccc3ccccc3n2)cc1,0.005
14,N#Cc1ccc(Cn2cnnc2CN(Cc2ccc(F)cc2F)C(=O)c2ccc3ccccc3n2)nc1,0.0055
15,Cc1nnc(CN(Cc2ccc(F)cc2F)C(=O)c2ccc3ccccc3n2)n1Cc1ccc(C#N)cc1,0.0009
16,N#Cc1ccc(Cn2cnnc2CN(Cc2ccc(F)cc2F)C(=O)c2ccc3ccccc3n2)cc1,0.0035
17,N#Cc1ccc(Cn2cnnc2CN(CCc2ccc(Br)cc2)C(=O)c2ccco2)cc1,0.0993
18,COc1cc(C(=O)N(CCc2ccc(Br)cc2)Cc2nncn2Cc2ccc(C#N)cc2)nc2ccccc12,0.0965
